According to article PMC6002064, “Validated UPLC-MS/MS method for the quantification of dasatinib in plasma: Application to pharmacokinetic interaction studies with nutraceuticals in Wistar rats” (PLoS ONE, 2018):

Columns and labels:
[1] = design: method as in PMID 28640225; settings: rats; cited from earlier work
[2] = Pharmacokinetic interaction study of oral DAS with nutraceuticals in acetic acid-induced UC Wistar rats (UPLC-MS/MS of plasma); format: in vivo; settings: DAS 25 mg/kg oral
Procedure: Calibration standards, QC samples, as well as blank plasma samples were centrifugated at 6000 rpm for 5 min. Following the separation of the methanolic supernatants, the residues of individual samples were separately washed with 0.5 mL volumes of methanol. The combined supernatant and washing of each sample were cleaned-up by passing onto STRATA® C 18-E (200 mg, 3 mL) SPE cartridges, previously preconditioned with 3.0 mL methanol followed by 3.0 mL ultrapure water. The retained drugs were eluted from each sample using separate volumes of 0.5 mL methanol. Following the evaporation of the eluted methanolic solutions to dryness under nitrogen, the residue was reconstituted in 0.5 mL acetonitrile. Finally, UPLC–MS/MS analysis of the reconstituted samples was performed by injecting 5 μL volumes of each sample under the operating conditions.
Wistar healthy male rats weighing 250 ± 30 g were provided by the animal house, Women Student-Medical studies & Sciences Sections, College of Pharmacy, King Saud University, Riyadh, Saudi Arabia. The rats were placed in cages kept in a well-ventilated room and subjected to a regular 12 h day–night cycle at a relative humidity of 40–60% and average temperature of 24–27°C. All the rats could access the water freely while diet was prohibited for 12 h before drug administration. The rats were acclimatized for 7 days to laboratory conditions before conducting the experiment. Seven groups of five rats each were involved in the study. For all rats, UC was induced by oral daily administration of 1 mL volumes of 5% glacial acetic acid in water for three successive days. DAS suspension was prepared by triturating 125 mg of DAS with 5 mL aqueous methyl cellulose (0.5%, w/v) to prepare DAS suspension of 25 mg/mL, given to all groups with the exception of group V where olive oil was used for the suspension preparation. Curcumin preparations (50 mg/mL) were prepared by suspending the content of one capsule of either Curcumin 95 500 mg or Super Bio-Curcumin 400 mg in 10 mL or 8 mL volumes of water, respectively. By analogy, a suspension of 50 mg/mL olive leaf extract was prepared by suspending the content of one capsule into 10 mL water. However, for cocoa preparations, 450 mg cocoa extract/ 5 mL, aqueous suspensions of either CocoaVia® capsules or CocoaVia® unsweetened dark chocolate powder were prepared by suspending the content of one capsule or 2 g powder, respectively in water. Separate volumes (0.25 mL) of DAS suspension were orally administered to all treated animals using a gavage needle so that all rats received DAS dose of 25 mg/kg. For the purpose of comparison, rats of group I were only treated with DAS. Rats of groups II and III, curcumin groups, were first separately given an oral dose of […] of either Super Bio-Curcumin, curcumin I (rat group II) or Curcumin 95, curcumin II (rat group III). Then 30 min following curcumin administration, DAS suspension was given to the rats in a dose of 25 mg/kg. Rats of groups IV and V, the olive oil groups, were administered olive oil as follows; rats of group IV were separately given an oral dose of olive leaf extract, olive oil I, 50 mg/kg 30 min prior to DAS administration (25 mg/kg), while rats of groups V were separately given an oral dose of DAS suspended in olive oil, olive oil II (25 mg/kg). Finally, rats of groups VI and VII, cocoa groups, were initially given an oral dose of CocoaVia® capsules, cocoa I, 90 mg/kg (rat group VI), or CocoaVia® unsweetened dark chocolate, cocoa II, 90 mg/kg (rat group VII) 30 min before DAS dosing of 25 mg/kg. For each group, volumes of 0.3 mL blood samples were withdrawn from the retro-orbital sinus of each rat into heparinized tubes. Blood samples were collected at different time intervals; 0 (prior to dosing), 0.5, 1, 2, 3, 5, 6, and 24 h following DAS administration. All collected blood samples were centrifuged immediately at 4,500 rpm (30 min, 4°C).

[3] = Stability of DAS in rat plasma QC samples; format: in vitro ADME
Procedure: QC samples spiked at two concentration levels of DAS, low (3 ng/mL) and high (450 ng/mL), were analyzed (n = 6) in order to assess the drug stability in plasma. Stability testing were performed by exposing the QC plasma samples to different conditions, namely auto-sampler stability (extracted samples left in the auto-sampler at 10°C for 56 h before injection), short-term (bench-top) stability (samples left at room temperature (25 °C) for 6 h), and long-term stability (samples left at -30°C for 30 days). Moreover, freeze-thaw stability was assessed as follows, plasma samples were frozen at around -30°C and then thawed at room temperature for three cycles. For each sample, DAS concentrations were related to the nominal concentrations to calculate the % recovery.

[4] = Stability of DAS solutions; format: physicochemical
[5] = Stability of DAS in rat plasma QC samples; format: in vitro ADME; settings: DAS solutions, 4°C, n = 6, read-out: Mean recovery (%) ±RSD, refrigerator stability
[6] = male, Wistar, rat, DAS in plasma, n = 5, mean±SD

Q: With CC(=O)N1CCN(c2ccc(OCC3COC(Cn4ccnc4)(c4ccc(Cl)cc4Cl)O3)cc2)CC1 (stereo not shown) [ketoconazole] as the molecule, how does the “effect of co-administration on the PK of sorafenib” value [1] read?
A: did not cause a significant effect

Q: Which results are given for Cc1nc(Nc2ncc(C(=O)Nc3c(C)cccc3Cl)s2)cc(N2CCN(CCO)CC2)n1 [DAS, Dasatinib]?
A: CL ([2]; DAS, n = 5, mean±SD): 153 ± 66.8 mL/min/kg; Vd ([2]; DAS, n = 5, mean±SD): 238.12 ± 44.22 L/kg; AUC(0-inf) [2, 6]: 2660 ± 596 ng·h/mL; AUC(0-t) [2, 6]: 1640 ± 681 ng·h/mL; Tmax [2, 6]: 0.51 ± 0.08 h; Cmax ([2]; male, Wistar, rat, DAS in plasma, n = 5, mean±SD, nutraceutical given orally 30 min before DAS (olive oil II: DAS suspended in it)): 230 ± 31 ng/mL; MRT last ([2]; male, Wistar, rat, DAS in plasma, n = 5, mean±SD, read-out: MRT0-t): 8.6 ± 0.88 h; MRT inf ([2]; male, Wistar, rat, DAS in plasma, n = 5, mean±SD, read-out: MRT0-∞): 24.4 ± 4.29 h; half-life ([2]; male, Wistar, rat, DAS in plasma, n = 5, mean±SD, read-out: t½ (converted)): 17.9 ± 2.15 h; concentration at 0 h ([2]; male, Wistar, rat, plasma, time 0 h (prior to dosing), read-out: Conc*10 (ng/mL plasma), average DAS plasma concentration): 28.6 ng/mL; concentration at 0.5 h ([2]; male, Wistar, rat, plasma, time 0.5 h, read-out: Conc*10 (ng/mL plasma), average DAS plasma concentration): 236 ng/mL; concentration at 1 h ([2]; male, Wistar, rat, plasma, time 1 h, read-out: Conc*10 (ng/mL plasma), average DAS plasma concentration): 153 ng/mL; concentration at 2 h ([2]; male, Wistar, rat, plasma, time 2 h, read-out: Conc*10 (ng/mL plasma), average DAS plasma concentration): 117 ng/mL; concentration at 3 h ([2]; male, Wistar, rat, plasma, time 3 h, read-out: Conc*10 (ng/mL plasma), average DAS plasma concentration): 99.7 ng/mL; concentration at 5 h ([2]; male, Wistar, rat, plasma, time 5 h, read-out: Conc*10 (ng/mL plasma), average DAS plasma concentration): 79.1 ng/mL; concentration at 6 h ([2]; male, Wistar, rat, plasma, time 6 h, read-out: Conc*10 (ng/mL plasma), average DAS plasma concentration): 69.6 ng/mL; concentration at 24 h ([2]; male, Wistar, rat, plasma, time 24 h, read-out: Conc*10 (ng/mL plasma), average DAS plasma concentration): 39.8 ng/mL; recovery at 56 h, 3 ng/mL ([3]; extracted rat plasma QC samples, 10°C, 56 h, extracted samples, 3 ng/mL in rat plasma, n = 6, read-out: Mean recovery (%) ±RSD, auto-sampler stability): 97.3%; recovery at 56 h, 450 ng/mL ([3]; extracted rat plasma QC samples, 10°C, 56 h, extracted samples, 450 ng/mL in rat plasma, n = 6, read-out: Mean recovery (%) ±RSD, auto-sampler stability): 98.5%; recovery at 6 h, 3 ng/mL ([3]; rat plasma QC samples, 25°C, 6 h, 3 ng/mL in rat plasma, n = 6, read-out: Mean recovery (%) ±RSD, short-term stability): 96.1%; recovery at 6 h, 450 ng/mL ([3]; rat plasma QC samples, 25°C, 6 h, 450 ng/mL in rat plasma, n = 6, read-out: Mean recovery (%) ±RSD, short-term stability): 97.2%; recovery at 3 freeze-thaw cycles, 3 ng/mL ([3]; rat plasma QC samples, -30°C, 3 cycles, 3 ng/mL in rat plasma, n = 6, read-out: Mean recovery (%) ±RSD, freeze-thaw stability): 101%; recovery at 3 freeze-thaw cycles, 450 ng/mL ([3]; rat plasma QC samples, -30°C, 3 cycles, 450 ng/mL in rat plasma, n = 6, read-out: Mean recovery (%) ±RSD, freeze-thaw stability): 99.5%; recovery at 30 days, 3 ng/mL ([3]; rat plasma QC samples, -30°C, 30 days, 3 ng/mL in rat plasma, n = 6, read-out: Mean recovery (%) ±RSD, long-term stability): 97.9%; recovery at 30 days, 450 ng/mL ([3]; rat plasma QC samples, -30°C, 30 days, 450 ng/mL in rat plasma, n = 6, read-out: Mean recovery (%) ±RSD, long-term stability): 97.3%; recovery ([3]; rat, rat plasma QC samples, all handling and storage conditions of Table 6, 3 and 450 ng/mL in plasma, read-out: recovery values in stability studies): ≥ 96.1%; stability of DAS solutions ([4]; room temperature for 6 h): stable; stability of DAS solutions ([4]; up to 3 months at the refrigerator (4°C)): stable; recovery at 3 months, 3 ng/mL ([5]; 3 ng/mL): 99.9%; recovery at 3 months, 450 ng/mL ([5]; 450 ng/mL): 98.1%
